The subject of test [1] is Puccinia recondita (PUCCRT). Nature of the test: Field assessment of brown rust of wheat (PUCCRT), 2 field trials. The class given is in vivo, Puccinia recondita on wheat (TRZAW). The following applies: relative AUDPC, average of 2 field trials, with Agnique BP-420. The source says: (§1) Treatments consisted of the compound of Formula I and the compound of Formula II either using individually or as a two-way mixture with the compound of Formula I. The compound of Formula I was applied with Agnique BP-420 (50% w/w at 0.3% v/v) at 75 and 150 g ai/ha and the compound of Formula II was applied with Agnique BP-420 (50% w/w at 0.3% v/v) at 20, 40, and 60 g ai/ha. Commercial standards used in the studies were Fluxapyroxad (Imtrex), applied at 100 g ai/ha, and Metconazole+Fluxapyroxad (Librax), applied at 161 g ai/ha.
Field Assessment of Puccinia recondita (PUCCRT) in Wheat:
Fungicidal treatment containing the compound of Formula I and the compound of Formula II, either individually or as a two mixture, were assessed against brown rust of wheat (PUCCRT) in two separate field trials. In the first trial, fungicidal treatments were applied at B37-39 (protectant, approximately 0% infection at application) growth stage of wheat (TRZAW, MV Vanek variety) under natural infection of brown rust. The treatment was part of an experimental trial designed as a randomized complete block with four replications and a plot of approximately 2×3 m. Fungicidal treatments were applied at a water volume of 200 L/ha, using a backpack plot sprayer with a TEEJET QJ90-2XTT110 015 Nozzle.
In the second trial, fungicidal treatments containing the compound of Formula I and the compound of Formula II, either individually or as a two way mixture, were applied at B33 (curative, approximately 6.6% infection at application) growth stage of wheat (TRZAW, Miradoux variety) under natural infection of brown rust. The treatments were part of an experimental trial designed as a randomized complete block with four replications and a plot of approximately 2×3 m. Fungicidal treatments were applied at a water volume of 200 L/ha, using a backpack plot sprayer with a HARDI MD110-02 Nozzle.
(§2) Disease severity (percentage of visual diseased foliage on whole plot or leaves) in both field trials was assessed at 5 weeks after application and was recorded following EPPO PP1/26 guideline prescriptions. Area under the disease progress curve (AUDPC) was calculated for each plot in both trials using the sets of recorded severity data. Relative AUDPC (% control based on AUDPC) was calculated as percent of the nontreated control. Final results for the control of brown rust of wheat by the compound of Formula I, the compound of Formula II, and mixtures are reported as an average of the relative AUDPC calculated over both field trials. Statistical analysis was done according to ANOVA and Tukey's test (p=0.10).

The subject of test [2] is Puccinia striiformis (PUCCST). Nature of the test: Field assessment of yellow rust of wheat (PUCCST), 2 field trials. The class given is in vivo, Puccinia striiformis on wheat (TRZAW). The following applies: relative AUDPC, average of 2 field trials, with Agnique BP-420.
Source text: as §1
Field Assessment of Puccinia striiformis (PUCCST) in Wheat:
Fungicidal treatments containing the compound of Formula I and the compound of Formula II, either individually or as a two way mixture, were assessed against yellow rust of wheat (PUCCST) in two separate field trials. In the first trial, fungicidal treatments were applied twice at B31-32 (early curative, 4% infection at application on L3) and B39 (16.3% infection at application on L3) growth stages of winter wheat (TRZAW, Fairplay variety) under naturally occurring infection with PUCCST. The treatments were part of an experimental trial designed as a randomized complete block with four replications and a plot of approximately 1×6 m. Treatments were applied at water volume of 200 L/ha, using a backpack plot sprayer (BKPCKENG, F110-015 Hardi (3) Flat fan nozzle) and pressurized at 200 kPa.
In the second trial, fungicidal treatments containing the compound of Formula I and the compound of Formula II, either individually or as a two way mixture, were applied twice at B32 (protectant, 0% infection on L3 at application) and B37 (early curative, 20% infection on L3 at application) growth stages of wheat (TRZAW, Torch variety) under naturally occurring infection with PUCCST. The treatment was part of an experimental trial designed as a randomized complete block with four replications and a plot of approximately 2×4 m. Treatments were applied at water volume of 200 L/ha, using a backpack precision plot sprayer (BKCKAIR, F110-03 Hypro (4) Flat fan nozzle) and pressurized at 210 kPa.
as §2, with “4-7” for “5”, “yellow” for “brown”

Test [3] relates to Zymoseptoria tritici (SEPTTR). The test is described as follows: Field assessment of leaf blotch of wheat (SEPTTR), 3 field trials. It is filed as in vivo, Zymoseptoria tritici on winter wheat (TRZAW). The following applies: relative AUDPC, average of 3 field trials, with Agnique BP-420.
Source text: as §1
Field Assessment of Zymoseptoria tritici (SEPTTR) in Wheat:
Fungicidal treatments containing the compound of Formula I and the compound of Formula II, either individually or as a two way mixture, were assessed against leaf spot of wheat (SEPTTR) in three separate field trials. In the first trial, fungicidal treatments were applied at B37 (curative, 1.8% infection at application on L4) growth stage of winter wheat (TRZAW, Sy moisson variety) under naturally occurring infection with SEPTTR. The treatments were part of an experimental trial designed as a randomized complete block with four replications and a plot of approximately 2×4 m. Treatments were applied at water volume of 200 L/ha, using a backpack plot sprayer (BKPCKAIR, FLAT FAN nozzle) and pressurized at 250 kPa.
In the second trial, fungicidal treatments were applied twice at B32 (curative, 15% infection at application on L5) and B39 (16% infection at application on L4) growth stages of winter wheat (TRZAW, Riband variety) under naturally occurring infection with SEPTTR. The treatments were part of an experimental trial designed as a randomized complete block with four replications and a plot of approximately 1.5×2 m. Treatments were applied at water volume of 200 L/ha, using a backpack plot sprayer (BKPCKAIR, Flat fan nozzle) and pressurized at 180 kPa.
In the final trial, fungicidal treatments were applied twice at B32 (protective, 15% infection at application on L6) and B37 (12% infection at application on L5) growth stages of winter wheat (TRZAW, Smaragd variety) under naturally occurring infection with SEPTTR. […]
as §2, with “at 7-9” for “at 5”, “of leaf spot” for “of brown rust”, “over all three” for “over both”, “trials. […]” for “trials. Statistical analysis was done according to ANOVA and Tukey's test (p=0.10).”

`COc1ccnc(C(=O)N[C@@H](C)C(=O)O[C@@H](C)C(c2ccc(F)cc2)c2ccc(F)cc2)c1OC(C)=O` [Compound II, (S)-1,1-bis(4-fluorophenyl)propan-2-yl (3-acetoxy-4-methoxypicolinoyl)-L-alaninate]: the “PUCCRT % Control” value in test [1] (20 g ai/ha) is 45.4%; in test [1] (40 g ai/ha), 64.7%. Moreover, the “PUCCST % Control” value in test [2] (40 g ai/ha) is 50.6%; in test [2] (60 g ai/ha), 56.2%. Also, the “SEPTTR % Control” value in test [3] (20 g ai/ha) stood at 35.1%; in test [3] (40 g ai/ha), 52.2%.

Consider `N#Cc1ccc(Oc2ccc(C(F)(F)C(O)(Cn3nc[nH]c3=S)c3ccc(F)cc3F)nc2)cc1` (stereo not drawn) [Compound I, 4-((6-(2-(2,4-difluorophenyl)-1,1-difluoro-2-hydroxy-3-(5-thioxo-4,5-dihydro-1H-1,2,4-triazol-1-yl)propyl)pyridin-3-yl)oxy)benzonitrile], for which the “PUCCRT % Control” value was 79.7% in test [1] (75 g ai/ha) and 89.0% in test [1] (150 g ai/ha). In addition, the “PUCCST % Control” value in test [2] (75 g ai/ha) came to 83.4%; in test [2] (150 g ai/ha), 87.7%. The results for the “SEPTTR % Control” value in test [3] (75 g ai/ha) and in test [3] (150 g ai/ha) were 50.3% and 73.8%, respectively.

These data come from patent US20230042961A1, “FUNGICIDAL COMPOUNDS AND MIXTURES FOR FUNGAL CONTROL IN CEREALS” (Dow AgroSciences LLC, priority 2017, published 2023).
